# “Also recorded” adds a separate entry of the source.
# Legend:
# [1] = tested on: C. elegans; assay: Immunoblot of ceHIF (HIF-1) in extracts of treated worms; type: in vivo; details: 1 mM, 21% oxygen, wild type worms
# Procedure: Immunoblots of ceHIF levels in extracts of c. elegans were carried out to monitor regulation by hypoxia and iron chelation. Firstly, the oxygen dependence of protein induction was analysed. Worms were grown on plates in bell jars flushed with air (N), or with oxygen/balance nitrogen having an oxygen concentration of 5%, 1%, 0.5% or 0.1% for 18 hrs. A graded increase in protein level was seen as the oxygen level was reduced below 5% with the highest level of induction at 0.5 and 0.1% oxygen concentration. The time course of protein induction was then studied. Worms were grown in bell jars flushed with a 0.1% oxygen/balance nitrogen mixture for 0, 4, 8, 16 or 24 hrs before preparation of extracts. […] The time course of protein decay on re-oxygenation was then assessed. Worms were grown in bell jars flushed with air (N) or a 0.1% oxygen/balance nitrogen mixture. Extracts were made either immediately, or after 4 and 8 minutes of re-oxygenation. Decay of ceHIF protein was very rapid on re-oxygenation. […] A time course RNAse protection assay showing cehif mRNA levels in worms exposed to 0.1% oxygen/balance nitrogen for 0, 4, 8, 16 and 24 hrs was carried out. No induction of ceHIF mRNA by hypoxia was seen. […] Induction by iron chelation was also studied in C. elegans. […]
# [2] = tested on: Hep3b and U20S cells; assay: Gal4/HIF-1α 775-826 carboxy terminal transactivator luciferase reporter assay; type: cell-based, human; details: normoxia or 2% hypoxia overnight
# Procedure: Hep3b and U20S cells were co-transfected with a mixture of three plasmids; pUAS.tk.luc, encoding a GAL 4 responsive luciferase gene, pgal-hif775-826, a mammalian expression plasmid leading to expression of a fusion between a 147 amino acid DNA binding domain of GAL 4 and the carboxy terminal transactivator of human HIF-1 alpha, and pCMV.beta-gal, encoding a constitutively expressed beta-galactosidase gene as a transfection control.
# 48 hours following transfection, cells were incubated in normoxia or 2% hypoxia overnight in the presence or absence of dimethyl oxalyl glycine as indicated. Cell lysates were assayed for luciferase and beta galactosidase activity and the relative luciferase activity in each sample determined.
# [3] = tested on: angiogenesis in subcutaneous polyurethane sponge; assay: Murine subcutaneous sponge angiogenesis assay; type: in vivo, mouse; details: 1 mM, 100 microliters injected days 1, 2, 4, 5; day 7; versus solvent
# Procedure: Implantation of a polyurethane sponge subcutaneously in a mouse provides an inflammatory stimulus to angiogenesis and is a well established model for assessing the pro- and anti-angiogenic effects of compounds. To test the effects of dimethyl oxalylglycine in vivo, sterile 8 mm sponge discs were inserted under the dorsal skin of C57 Black mice on Day 0. Test solutions were injected through the skin into the sponges of mice once per day on days 1, 2, 4 and 5. Individual mice received 100 microliters aliquots of either sterile dimethyloxalylglycine (0.1 mM, 1 mM or 10 mM) or carrier solution. Animals were sacrificed on day 7 and the sponges removed. The sponges were fixed in 3.7% formaldehyde, paraffin embedded and stained immunohistochemically for von Willebrand factor to identify blood vessels.
# Artificial activation of the HIF signalling pathway using the methods of the invention should induce angiogenesis and will therefore be of potential therapeutic use in ischaemic disease. We tested the effect of polypeptide induced HIF stabilisation in an in vitro angiogenesis assay, co-culturing human microvascular endothelial cells (HMEC-1) with empty vector transfected or doxCODD cells. In view of the possibility of sustained activation inducing a negative feedback loop we opted to test the effects of intermittent induction. […]
# [4] = tested on: HIF hydroxylase (HPH activity); assay: HIF hydroxylase (HPH) inhibition, statements of the description; type: biochemical
# [5] = tested on: HIF; assay: Induction of HIF in tissue culture by esterified equivalents; type: cell-based; details: In-vivo esterified equivalent
smiles,measurement,setting,value
COC(=O)CNC(=O)C(=O)OC [dimethyloxalylglycine],ceHIF (HIF-1) protein level in normoxia,[1],substantial increase in the amount of immunodetectable ceHIF; also recorded: strongly induced HIF-1
same,relative luciferase activity (carboxy terminal transactivator),[2],enhanced activity of the carboxy terminal transactivator
same,blood vessels in sponges (von Willebrand factor),[3],Considerably more blood vessels
same,inhibition of HIF hydroxylase / HPH,[4],act as inhibitors
same,Induction of HIF in tissue culture,[5],Yes

# — patent publication US9844546B2, “Antibody against human HIF hydroxylase” (OXFORD UNIVERSITY INNOVATION LIMITED, priority 2001, dated 2017)
